Measurements taken from patent publication US7179941B2, “Carbonylamino-substituted acyl phenyl urea derivatives, process for their preparation and their use” (Sanofi-Aventis Deutschland GmbH, priority 2003, dated 2007).

Target: T1, human glycogen phosphorylase a (Homo sapiens, UniProt P06737)
T1 sequence (P06737 1-847): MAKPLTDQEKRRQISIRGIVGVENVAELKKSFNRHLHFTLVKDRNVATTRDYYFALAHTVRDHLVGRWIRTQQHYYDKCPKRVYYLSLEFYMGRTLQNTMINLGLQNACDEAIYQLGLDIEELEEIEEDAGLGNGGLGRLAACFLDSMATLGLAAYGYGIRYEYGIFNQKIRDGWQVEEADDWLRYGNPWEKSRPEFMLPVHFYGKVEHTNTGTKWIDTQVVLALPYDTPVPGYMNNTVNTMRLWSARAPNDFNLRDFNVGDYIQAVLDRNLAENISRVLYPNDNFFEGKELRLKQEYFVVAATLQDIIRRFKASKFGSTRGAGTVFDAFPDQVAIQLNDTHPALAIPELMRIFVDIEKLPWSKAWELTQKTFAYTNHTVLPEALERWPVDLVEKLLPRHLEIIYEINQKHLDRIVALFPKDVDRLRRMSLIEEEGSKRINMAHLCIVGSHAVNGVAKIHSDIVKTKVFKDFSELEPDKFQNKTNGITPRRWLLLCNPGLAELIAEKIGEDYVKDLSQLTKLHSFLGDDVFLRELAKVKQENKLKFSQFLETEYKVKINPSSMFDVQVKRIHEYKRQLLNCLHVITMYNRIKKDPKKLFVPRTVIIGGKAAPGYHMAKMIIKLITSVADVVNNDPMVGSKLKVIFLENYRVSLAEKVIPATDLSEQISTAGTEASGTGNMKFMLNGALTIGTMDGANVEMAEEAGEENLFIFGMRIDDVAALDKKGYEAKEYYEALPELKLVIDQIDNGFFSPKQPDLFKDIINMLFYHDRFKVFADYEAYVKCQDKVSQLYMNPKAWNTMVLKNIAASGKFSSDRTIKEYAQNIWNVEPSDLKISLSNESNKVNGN
Assay: Glycogen phosphorylase a activity test
Type: biochemical
Conditions: 10 μM test substance, GPa measured in reverse direction (glycogen synthesis from glucose 1-phosphate)
Method: Glycogen Phophorylase a Activity Test
The effect of compounds on the activity of the active form of glycogen phosphorylase (GPa) was measured in the reverse direction by monitoring the synthesis of glycogen from glucose 1-phosphate by determining the release of inorganic phosphate. All reactions were carried out as duplicate determinations in 96-well microtiter plates (half area plates, Costar No. 3696), and the change in absorption as a consequence of the formation of the reaction product was measured at the wavelength specified below in a Multiskan Ascent Elisa Reader (Lab Systems, Finland).
In order to measure the GPa enzyme activity in the reverse direction, the conversion of glucose 1-phosphate to glycogen and inorganic phosphate was measured by the general method of Engers et al. (Engers HD, Shechosky S, Madsen NB, Can J Biochem 1970 July;48(7):746–754) with the following modifications: human glycogen phosphorylase a (for example containing 0.76 mg of protein/ml (Aventis Pharma Deutschland GmbH), dissolved in buffer solution E (25 mM P-glycerophosphate, pH 7.0, 1 mM EDTA and 1 mM dithiotreitol) was diluted to a concentration of 10 μg of protein/ml with buffer T (50 mM Hepes, pH 7.0, 100 mM KCl, 2.5 mM EDTA, 2.5 mM MgCl2.6H2O) and addition of 5 mg/ml of glycogen. Test substances were prepared as a 10 mM solution in DMSO and diluted to 50 μM with buffer solution T. To 10 μl of this solution were added 10 μl of 37.5 mM glucose dissolved in buffer solution T and 5 mg/ml of glycogen, and also 10 μl of a solution of human glycogen phosphorylase a (10 μg of protein/ml) and 20 μl of 2.5 mM glucose 1-phosphate. The base value of the activity of glycogen phosphorylase a in the absence of test substance was determined by adding 10 μl of buffer solution T (0.1% DMSO). The mixture was incubated at room temperature for 40 minutes and the released inorganic phosphate was determined by means of the general method of Drueckes et al. (Drueckes P, Schinzel R, Palm D, Anal Biochem 1995 Sep. 1;230(1):173–177) with the following modifications: 50 μl of a stop solution of 7.3 mM of ammonium molybdate, 10.9 mM of zinc acetate, 3.6% of ascorbic acid, 0.9% of SDS are added to 50 μl of the enzyme mixture. After 60 minutes of incubation at 45° C., the absorption was measured at 820 nm. To determine the background absorption, the stop solution was added immediately after the addition of the glucose 1-phosphate solution in a separate reaction.

Compound | % Inhibition at 10 μM [%] | further results
COc1ccc(NC(=O)c2ccccc2OC)cc1NC(=O)NC(=O)c1cc(F)c(F)cc1Cl [Example 34] | 97 | 
CC=CC(=O)Nc1ccc(OC)c(NC(=O)NC(=O)c2cc(F)c(F)cc2Cl)c1 [Example 35] | 99 | 
COc1ccc(NC(=O)c2ccccc2F)cc1NC(=O)NC(=O)c1cc(F)c(F)cc1Cl [Example 36] | 101 | 
COc1ccc(NC(=O)Cc2ccccc2)cc1NC(=O)NC(=O)c1cc(F)c(F)cc1Cl [Example 37] | 101 | 
COc1ccc2oc(C(=O)Nc3ccc(OC)c(NC(=O)NC(=O)c4cc(F)c(F)cc4Cl)c3)cc2c1 [Example 38] | 102 | 
COc1ccc(NC(=O)c2cc3cc(Cl)ccc3o2)cc1NC(=O)NC(=O)c1cc(F)c(F)cc1Cl [Example 39] | 101 | 
COc1ccc(NC(=O)c2ccc(F)cc2)cc1NC(=O)NC(=O)c1cc(F)c(F)cc1Cl [Example 40] | 98 | 
COc1cccc(CC(=O)Nc2ccc(OC)c(NC(=O)NC(=O)c3cc(F)c(F)cc3Cl)c2)c1 [Example 41] | 104 | 
COc1ccc(NC(=O)C(=O)c2c[nH]c3ccccc23)cc1NC(=O)NC(=O)c1cc(F)c(F)cc1Cl [Example 42] | 83 | 
COc1ccc(NC(=O)C(C)C)cc1NC(=O)NC(=O)c1cc(F)c(F)cc1Cl [Example 43] |  | % Inhibition at 10 μM (10 µM): 98%
COc1ccc(NC(=O)C2CCC2)cc1NC(=O)NC(=O)c1cc(F)c(F)cc1Cl [Example 44] | 101 | 
COc1ccc(NC(=O)c2cccc(F)c2)cc1NC(=O)NC(=O)c1cc(F)c(F)cc1Cl [Example 45] | 97 | 
C=CCCC(=O)Nc1ccc(OC)c(NC(=O)NC(=O)c2cc(F)c(F)cc2Cl)c1 [Example 46] | 102 | 
CCCCC(=O)Nc1ccc(OC)c(NC(=O)NC(=O)c2cc(F)c(F)cc2Cl)c1 [Example 47] | 105 | 
CCOC(=O)CCC(=O)Nc1ccc(OC)c(NC(=O)NC(=O)c2cc(F)c(F)cc2Cl)c1 [Example 48] | 97 | 
COc1ccc(NC(=O)COC(C)=O)cc1NC(=O)NC(=O)c1cc(F)c(F)cc1Cl [Example 49] | 99 | 
COc1ccc(NC(=O)C(C)C)cc1NC(=O)NC(=O)c1cc(F)c(F)cc1Cl [Example 50] |  | % Inhibition at 10 μM (10 µM): 94%
COc1ccc(NC(=O)c2ccccc2OC(F)(F)F)cc1NC(=O)NC(=O)c1cc(F)c(F)cc1Cl [Example 51] | 92 | 
COc1ccc(NC(=O)CN)cc1NC(=O)NC(=O)c1cc(F)c(F)cc1Cl [Example 52] | 101 | 
COc1ccc(NC(=O)CCCN)cc1NC(=O)NC(=O)c1cc(F)c(F)cc1Cl [Example 53] | 100 | 
CNCC(=O)Nc1ccc(OC)c(NC(=O)NC(=O)c2cc(F)c(F)cc2Cl)c1 [Example 54] | 100 | 
COc1ccc(NC(=O)CCN)cc1NC(=O)NC(=O)c1cc(F)c(F)cc1Cl [Example 55] | 100 | 
C#CCCC(=O)Nc1ccc(OC)c(NC(=O)NC(=O)c2cc(F)c(F)cc2Cl)c1 [Example 57] | 99 | 
COc1ccc(NC(=O)CN(C)C)cc1NC(=O)NC(=O)c1cc(F)c(F)cc1Cl [Example 58] | 99 | 
CCOCC(=O)Nc1ccc(OC)c(NC(=O)NC(=O)c2cc(F)c(F)cc2Cl)c1 [Example 59] | 103 | 

Compound | % Inhibition at 10 μM [%] | further results
C#CCC(=O)Nc1ccc(OC)c(NC(=O)NC(=O)c2cc(F)c(F)cc2Cl)c1 [Example 60] | 103 | 
COc1ccc(NC(=O)C(F)F)cc1NC(=O)NC(=O)c1cc(F)c(F)cc1Cl [Example 61] | 100 | 
COc1ccc(NC(=O)CO)cc1NC(=O)NC(=O)c1cc(F)c(F)cc1Cl [Example 62] | 101 | 
CC(=O)Nc1ccc(OC(F)(F)F)c(NC(=O)NC(=O)c2cc(F)c(F)cc2Cl)c1 [Example 64, N-{3-[3-(2-Chloro-4,5-difluorobenzoyl)ureido]-4-trifluoromethoxyphenyl}acetamide] |  | inhibition at 10 µM: 101%
COC(=O)C(=O)Nc1ccc(OC(F)(F)F)c(NC(=O)NC(=O)c2cc(F)c(F)cc2Cl)c1 [Example 65] | 98 | 
COC(=O)CC(=O)Nc1ccc(OC(F)(F)F)c(NC(=O)NC(=O)c2cc(F)c(F)cc2Cl)c1 [Example 66] | 100 | 
COC(=O)CCC(=O)Nc1ccc(OC(F)(F)F)c(NC(=O)NC(=O)c2cc(F)c(F)cc2Cl)c1 [Example 67] | 101 | 
O=C(NC(=O)c1cc(F)c(F)cc1Cl)Nc1cc(NC(=O)C(=O)O)ccc1OC(F)(F)F [Example 68] | 101 | 
O=C(O)CC(=O)Nc1ccc(OC(F)(F)F)c(NC(=O)NC(=O)c2cc(F)c(F)cc2Cl)c1 [Example 69] | 100 | 
O=C(O)CCC(=O)Nc1ccc(OC(F)(F)F)c(NC(=O)NC(=O)c2cc(F)c(F)cc2Cl)c1 [Example 70] | 99 | 
CC(=O)Nc1ccc(N(C)C)c(NC(=O)NC(=O)c2cc(F)c(F)cc2Cl)c1 [Example 71] | 97 | 
CCN(CC)c1ccc(NC(C)=O)cc1NC(=O)NC(=O)c1cc(F)c(F)cc1Cl [Example 72] | 96 | 
CC(=O)Nc1ccc(N2CCCC2)c(NC(=O)NC(=O)c2cc(F)c(F)cc2Cl)c1 [Example 73, N-{3-[3-(2-Chloro-4,5-difluorobenzoyl)ureido]-4-pyrrolidin-1-ylphenyl}acetamide] |  | inhibition at 10 µM: 97%
COC(=O)CC(=O)Nc1ccc(N(C)C)c(NC(=O)NC(=O)c2cc(F)c(F)cc2Cl)c1 [Example 74] | 98 | 
COC(=O)CC(=O)Nc1ccc(N2CCCC2)c(NC(=O)NC(=O)c2cc(F)c(F)cc2Cl)c1 [Example 75] | 100 | 
CN(C)c1ccc(NC(=O)CC(=O)O)cc1NC(=O)NC(=O)c1cc(F)c(F)cc1Cl [Example 76] | 99 | 
O=C(O)CC(=O)Nc1ccc(N2CCCC2)c(NC(=O)NC(=O)c2cc(F)c(F)cc2Cl)c1 [Example 77] | 98 | 
O=C(O)CCC(=O)Nc1cccc(NC(=O)NC(=O)c2ccc(Cl)cc2Cl)c1 [Example 78] | 86 | 
NCCCC(=O)Nc1cccc(NC(=O)NC(=O)c2ccc(Cl)cc2Cl)c1 [Example 79] | 80 | 
CC(=O)Nc1ccc(Cl)c(NC(=O)NC(=O)c2ccc(Cl)cc2Cl)c1.O=C(O)C(F)(F)F [Example 80] | 98 | 
O=C(O)CCC(=O)Nc1ccc(Cl)c(NC(=O)NC(=O)c2ccc(Cl)cc2Cl)c1 [Example 81] | 97 | 
COc1ccc(NC(C)=O)cc1NC(=O)NC(=O)c1ccc(Cl)cc1Cl [Example 82] | 102 | 
COc1ccc(NC(=O)CCC(=O)O)cc1NC(=O)NC(=O)c1ccc(Cl)cc1Cl [Example 83] | 103 | 
O=C(O)CCC(=O)Nc1ccc(Cl)c(NC(=O)NC(=O)c2cc(F)c(F)cc2Cl)c1 [Example 84] | 100 | 
CC(=O)Nc1ccc(Cl)c(NC(=O)NC(=O)c2cc(F)c(F)cc2Cl)c1 [Example 85] | 98 | 
